Data on 6 compounds can be found in patent publication US8003847B2, “Non-human mutant mammals deficient in Sigma receptors and their applications” (Laboratorios Del Dr. Esteve, S.A., priority 2002, dated 2011).

For assay [1], the system named is mouse Sigma-1 receptor. Put plainly: specific binding test to the [3H]-pentazocine ligand, brain membrane fraction. Particulars: brain membranes of homozygous mutant (-/-) mice; 37° C., 130-170 minutes.
Description: Fourthly, the activity (function) of the mouse Sigma-1 receptor was evaluated by a specific binding test to the [^3H]-pentazocine ligand. Briefly, the brains of mutant (−/−), heterozygous (+/−) and wild (+/+) mice were homogenised and the homogenisations ere centrifuged several times at different speeds to obtain the membrane fraction. Then samples of the membrane fraction obtained were incubated with the [^3H]-pentazocine radioligand in optimal binding conditions for this receptor (37° C., for 130-170 minutes), filtrating the samples, washing them and reading the radioactivity count present in the filtrate (see DeHaven-Hudkins D. L., Fleissner L. C., Ford-Rice, F. Y. (1992) Characterization of the binding of [3H]-Pentazocine to sigma recognition sites in guinea pigs brain. European Journal of Pharmacology 227:371-378, hereinafter DeHaven-Hudkins).
In assay [2] the target is type-2 Sigma receptors (Homo sapiens, UniProt Q5BJF2). Particulars: type-2 Sigma receptor, result in words; cited from earlier work.
Chain of type-2 Sigma receptors (Q5BJF2 whole entry): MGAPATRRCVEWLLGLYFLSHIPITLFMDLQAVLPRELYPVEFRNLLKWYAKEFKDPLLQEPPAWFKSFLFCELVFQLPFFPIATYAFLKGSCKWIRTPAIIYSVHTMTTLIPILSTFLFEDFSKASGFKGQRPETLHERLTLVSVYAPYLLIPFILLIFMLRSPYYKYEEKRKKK
For assay [3], the target named is type-1 Sigma receptors (Homo sapiens, UniProt Q99720). Particulars: type-1 Sigma receptor, result in words; cited from earlier work.
Chain of type-1 Sigma receptors (Q99720 whole entry): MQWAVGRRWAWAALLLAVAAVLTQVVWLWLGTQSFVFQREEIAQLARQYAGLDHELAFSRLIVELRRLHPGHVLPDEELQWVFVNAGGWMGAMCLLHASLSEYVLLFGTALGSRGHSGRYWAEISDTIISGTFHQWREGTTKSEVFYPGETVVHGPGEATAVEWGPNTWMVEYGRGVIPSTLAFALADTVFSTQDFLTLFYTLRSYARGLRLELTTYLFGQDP
Assay [4] concerns the target Sigma-1 receptor (Mus musculus, UniProt O55242). Particulars: in vivo. How it is done: Fifthly, the function of the Sigma-1 receptor was evaluated according to known behavioral paradigms and protocols.

Chain of Sigma-1 receptor (O55242 whole entry): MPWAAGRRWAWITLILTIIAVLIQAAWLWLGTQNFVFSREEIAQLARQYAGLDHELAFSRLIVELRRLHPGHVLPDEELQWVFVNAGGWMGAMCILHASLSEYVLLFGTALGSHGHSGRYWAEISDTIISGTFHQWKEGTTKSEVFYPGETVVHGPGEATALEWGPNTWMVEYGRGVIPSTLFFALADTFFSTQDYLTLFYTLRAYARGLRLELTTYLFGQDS

Regarding `[3H]c1cc2c(c([3H])c1O)[C@@]1(C)CCN(CC=C(C)C)[C@@H](C2)[C@H]1C` [[^3H]-pentazocine], the “specific binding of radioligand (activity/function of receptor)” value in assay [1] was “lack of activity (function)”.

On to `CC(C)=CCN1CCC2(C)c3cc(O)ccc3CC1C2C` (single isomer, unassigned; (+)) [(+)-pentazocine], for which the affinity result in assay [2] is given as “low affinity”; in assay [3], “high affinity”.

Consider `C[C@@H]1CN(CCCn2c3ccccc3c3ccccc32)C[C@H](C)N1` [rimcazole], for which, in assay [3], the affinity entry was “high affinity”. Take N-allylnormetazocine [SKF-10047]: in assay [4], the “hyperactivity (hypermotility) response” value is given as “Statistically significant differences have only been observed with wild mice”. For the same compound, the affinity entry in assay [3] is “high affinity”.

In the case of `O=C(CCCN1CCC(O)(c2ccc(Cl)cc2)CC1)c1ccc(F)cc1` [haloperidol], in assay [2], the affinity result is “high to moderate affinity”. For (+)-SKF10047, the affinity result in assay [2] is recorded as “low affinity”.
